# Biological target: USP1 (construct USP1 (I-785, GG670, 671AA)/UAF1 (I-677)-Flag) (Homo sapiens (Human), UniProt O94782, G670A/G671A)
# Assay: Ubiquitin-Rhodamine 110 assay for USP1 activity
# Format: biochemical
# Conditions: USP1/UAF1 25 pM, Ub-Rh110 25 nM, 30 min preincubation
# Summary of the method: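 Two formats with the USP1/UAF1 complex and 25 nM ubiquitin-rhodamine 110 in pH 8.0 Tris buffer with calcium, glutathione and detergent. Single-point screening used 10 µM, 100 pM enzyme and 45 min. Inhibition was set against no-enzyme and DMSO wells.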
# Chain of USP1 (construct USP1 (I-785, GG670, 671AA)/UAF1 (I-677)-Flag) (O94782 whole entry G670A/G671A): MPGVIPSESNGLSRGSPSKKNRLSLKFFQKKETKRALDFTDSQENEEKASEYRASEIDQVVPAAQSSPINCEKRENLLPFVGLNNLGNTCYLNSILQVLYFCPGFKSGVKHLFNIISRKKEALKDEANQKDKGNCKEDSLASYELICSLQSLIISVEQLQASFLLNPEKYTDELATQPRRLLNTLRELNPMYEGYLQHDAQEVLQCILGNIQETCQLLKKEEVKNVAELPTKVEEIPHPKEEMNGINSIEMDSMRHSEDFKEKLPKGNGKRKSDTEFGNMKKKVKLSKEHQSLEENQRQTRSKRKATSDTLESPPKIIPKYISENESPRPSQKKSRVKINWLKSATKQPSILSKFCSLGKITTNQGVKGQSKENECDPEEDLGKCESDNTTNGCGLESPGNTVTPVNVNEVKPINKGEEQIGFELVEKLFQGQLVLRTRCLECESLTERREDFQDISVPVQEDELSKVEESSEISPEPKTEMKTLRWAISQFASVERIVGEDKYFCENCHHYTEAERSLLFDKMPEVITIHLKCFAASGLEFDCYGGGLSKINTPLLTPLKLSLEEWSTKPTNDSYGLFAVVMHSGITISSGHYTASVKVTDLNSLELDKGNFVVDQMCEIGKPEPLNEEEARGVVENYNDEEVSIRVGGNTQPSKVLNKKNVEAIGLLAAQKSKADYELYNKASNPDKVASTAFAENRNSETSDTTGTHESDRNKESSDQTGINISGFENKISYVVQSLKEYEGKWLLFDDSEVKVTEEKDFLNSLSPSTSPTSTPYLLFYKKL
# Chain of USP1 (construct USP1 (I-785, GG670, 671AA)/UAF1 (I-677)-Flag) (Q8TAF3 whole entry partner): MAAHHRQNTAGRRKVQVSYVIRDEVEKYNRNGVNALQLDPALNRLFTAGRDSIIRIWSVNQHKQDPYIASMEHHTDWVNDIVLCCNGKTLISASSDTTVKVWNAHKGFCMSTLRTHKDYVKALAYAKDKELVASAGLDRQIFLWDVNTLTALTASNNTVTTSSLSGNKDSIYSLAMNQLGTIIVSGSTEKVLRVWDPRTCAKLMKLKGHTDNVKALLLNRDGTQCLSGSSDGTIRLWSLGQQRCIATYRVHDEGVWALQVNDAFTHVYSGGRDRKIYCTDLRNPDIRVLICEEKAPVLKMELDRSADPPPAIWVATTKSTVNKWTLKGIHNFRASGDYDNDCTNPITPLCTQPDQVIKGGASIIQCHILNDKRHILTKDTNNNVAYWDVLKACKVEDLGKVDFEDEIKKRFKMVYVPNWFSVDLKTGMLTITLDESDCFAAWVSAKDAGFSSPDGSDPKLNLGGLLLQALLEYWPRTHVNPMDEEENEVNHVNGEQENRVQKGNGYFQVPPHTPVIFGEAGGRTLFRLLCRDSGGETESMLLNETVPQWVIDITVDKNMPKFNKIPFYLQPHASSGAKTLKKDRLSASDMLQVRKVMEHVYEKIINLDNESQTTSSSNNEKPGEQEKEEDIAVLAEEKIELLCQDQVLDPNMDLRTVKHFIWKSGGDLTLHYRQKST
structure (smiles),measurement,value
"CC(C)c1ccccc1-c1ncc2[nH]c(=O)n(CC3CCN(c4cccnc4)CC3)c2n1 [Compound I-143, 2-(2-isopropylphenyl)-9-((1-(pyridin-3-yl)piperidin-4-yl)methyl)-7,9-dihydro-8H-purin-8-one]",IC50,200 to 2000 nM
"CC(C)c1ccccc1-c1ncc2[nH]c(=O)n(C3CCN(c4cccnc4)CC3)c2n1 [Compound I-144, 2-(2-isopropylphenyl)-9-(1-(pyridin-3-yl)piperidin-4-yl)-7,9-dihydro-8H-purin-8-one]",IC50,> 2000 nM
"CC(C)c1ccccc1-c1ncc2[nH]c(=O)n(Cc3ccc(-n4cccn4)cc3)c2n1 [Compound I-145, 9-(4-(1H-pyrazol-1-yl)benzyl)-2-(2-isopropylphenyl)-7,9-dihydro-8H-purin-8-one]",IC50,< 50 nM
"CC(C)c1ccccc1-c1ncc2[nH]c(=O)n(Cc3ccc(-n4cccn4)nc3)c2n1 [Compound I-146, 9-((6-(1H-pyrazol-1-yl)pyridin-3-yl)methyl)-2-(2-isopropylphenyl)-7,9-dihydro-8H-purin-8-one]",IC50,50 to 200 nM
"CC(C)c1ccccc1-c1ncc2[nH]c(=O)n([C@@H](C)c3ccc(-n4ccnn4)cc3)c2n1 [Compound I-147, (S)-9-(1-(4-(1H-1,2,3-triazol-1-yl)phenyl)ethyl)-2-(2-isopropylphenyl)-7,9-dihydro-8H-purin-8-one]",IC50,50 to 200 nM
"CC(C)c1ccccc1-c1ncc2[nH]c(=O)n([C@H](C)c3ccc(-n4ccnn4)cc3)c2n1 [Compound I-148, (R)-9-(1-(4-(1H-1,2,3-triazol-1-yl)phenyl)ethyl)-2-(2-isopropylphenyl)-7,9-dihydro-8H-purin-8-one]",IC50,200 to 2000 nM
"CC(C)c1ccccc1-c1ncc2[nH]c(=O)n(Cc3ccc(-n4ccc(C(F)(F)F)n4)cc3)c2n1 [Compound I-149, 2-(2-isopropylphenyl)-9-(4-(3-(trifluoromethyl)-1H-pyrazol-1-yl)benzyl)-7,9-dihydro-8H-purin-8-one]",IC50,50 to 200 nM
"Cc1nnc(-c2ccc(Cn3c(=O)[nH]c4cnc(-c5ccccc5C(C)C)nc43)cc2)o1 [Compound I-150, 2-(2-isopropylphenyl)-9-(4-(5-methyl-1,3,4-oxadiazol-2-yl)benzyl)-7,9-dihydro-8H-purin-8-one]",IC50,< 50 nM
"CC(C)c1ccccc1-c1ncc2[nH]c(=O)n(Cc3ccc(C#N)cc3)c2n1 [Compound I-151, 4-((2-(2-isopropylphenyl)-8-oxo-7,8-dihydro-9H-purin-9-yl)methyl)benzonitrile]",IC50,200 to 2000 nM
"Cc1nc(-c2ccc(Cn3c(=O)[nH]c4cnc(-c5ccccc5C(C)C)nc43)cc2)no1 [Compound I-152, 2-(2-isopropylphenyl)-9-(4-(5-methyl-1,2,4-oxadiazol-3-yl)benzyl)-7,9-dihydro-8H-purin-8-one]",IC50,< 50 nM
"CC(C)c1ccccc1-c1ncc2[nH]c(=O)n(Cc3ccc(CN4CCOCC4)cc3)c2n1 [Compound I-153, 2-(2-isopropylphenyl)-9-(4-(morpholinomethyl)benzyl)-7,9-dihydro-8H-purin-8-one]",IC50,> 2000 nM
"CC(C)c1ccccc1-c1ncc2[nH]c(=O)n(Cc3ccc(-n4cncn4)cc3)c2n1 [Compound I-154, 9-(4-(1H-1,2,4-triazol-1-yl)benzyl)-2-(2-isopropylphenyl)-7,9-dihydro-8H-purin-8-one]",IC50,> 2000 nM
"CC(C)c1ccccc1-c1ncc2[nH]c(=O)n([C@H](C)c3ccccc3)c2n1 [Compound I-155, (R)-2-(2-isopropylphenyl)-9-(1-phenylethyl)-7,9-dihydro-8H-purin-8-one]",IC50,50 to 200 nM
"CC(C)c1ccccc1-c1ncc2[nH]c(=O)n([C@@H](C)c3ccccc3)c2n1 [Compound I-156, (S)-2-(2-isopropylphenyl)-9-(1-phenylethyl)-7,9-dihydro-8H-purin-8-one]",IC50,> 2000 nM
"CC(C)c1ccccc1-c1ncc2[nH]c(=O)n([C@@H](C)c3ccc(-n4cccn4)cc3)c2n1 [Compound I-157, (S)-9-(1-(4-(1H-pyrazol-1-yl)phenyl)ethyl)-2-(2-isopropylphenyl)-7,9-dihydro-8H-purin-8-one]",IC50,50 to 200 nM
"CC(C)c1ccccc1-c1ncc2[nH]c(=O)n([C@@H]3CCOc4ccccc43)c2n1 [Compound I-159, (R)-9-(chroman-4-yl)-2-(2-isopropylphenyl)-7,9-dihydro-8H-purin-8-one]",IC50,200 to 2000 nM
"CC(C)c1ccccc1-c1ncc2[nH]c(=O)n(Cc3ccc(-c4nccn4C)cc3)c2n1 [Compound I-160, 2-(2-isopropylphenyl)-9-(4-(1-methyl-1H-imidazol-2-yl)benzyl)-7,9-dihydro-8H-purin-8-one]",IC50,< 50 nM
"CC(C)c1ccccc1-c1ncc2[nH]c(=O)n(CCC3CCN(c4cccnc4)CC3)c2n1 [Compound I-161, 2-(2-isopropylphenyl)-9-(2-(1-(pyridin-3-yl)piperidin-4-yl)ethyl)-7,9-dihydro-8H-purin-8-one]",IC50,200 to 2000 nM
"CC(C)c1ccccc1-c1ncc2[nH]c(=O)n(Cc3ccc(-n4cccn4)cc3Cl)c2n1 [Compound I-162, 9-(2-chloro-4-(1H-pyrazol-1-yl)benzyl)-2-(2-isopropylphenyl)-7,9-dihydro-8H-purin-8-one]",IC50,50 to 200 nM
"CC(C)c1ccccc1-c1ncc2[nH]c(=O)n([C@@H]3CC[C@H]3c3ccc(-n4cccn4)cc3)c2n1 [Compound I-163, 9-((1R,2S)-2-(4-(1H-pyrazol-1-yl)phenyl)cyclobutyl)-2-(2-isopropylphenyl)-7,9-dihydro-8H-purin-8-one]",IC50,< 50 nM
"CC(C)c1ccccc1-c1ncc2[nH]c(=O)n([C@H]3CC[C@@H]3c3ccc(-n4cccn4)cc3)c2n1 [Compound I-164, 9-((1S,2R)-2-(4-(1H-pyrazol-1-yl)phenyl)cyclobutyl)-2-(2-isopropylphenyl)-7,9-dihydro-8H-purin-8-one]",IC50,200 to 2000 nM
"CC(C)c1c(F)cccc1-c1ncc2[nH]c(=O)n(Cc3ccc(-n4ccnn4)cc3)c2n1 [Compound I-165, 9-(4-(1H-1,2,3-triazol-1-yl)benzyl)-2-(3-fluoro-2-isopropylphenyl)-7,9-dihydro-8H-purin-8-one]",IC50,50 to 200 nM
"CC(C)c1c(F)cccc1-c1ncc2[nH]c(=O)n(Cc3ccc(-n4nccn4)cc3)c2n1 [Compound I-166, 9-(4-(2H-1,2,3-triazol-2-yl)benzyl)-2-(3-fluoro-2-isopropylphenyl)-7,9-dihydro-8H-purin-8-one]",IC50,50 to 200 nM
"CC(C)c1ccccc1-c1ncc2[nH]c(=O)n(Cc3ccc(-n4cccn4)cc3F)c2n1 [Compound I-167, 9-(2-fluoro-4-(1H-pyrazol-1-yl)benzyl)-2-(2-isopropylphenyl)-7,9-dihydro-8H-purin-8-one]",IC50,200 to 2000 nM
"Cc1nnn(-c2ccc(Cn3c(=O)[nH]c4cnc(-c5ccccc5C(C)C)nc43)cc2)n1 [Compound I-168, 2-(2-isopropylphenyl)-9-(4-(5-methyl-2H-tetrazol-2-yl)benzyl)-7,9-dihydro-8H-purin-8-one]",IC50,50 to 200 nM
"CC(C)c1ccccc1-c1ncc2[nH]c(=O)n(Cc3ccc(-c4ncco4)cc3)c2n1 [Compound I-169, 2-(2-isopropylphenyl)-9-(4-(oxazol-2-yl)benzyl)-7,9-dihydro-8H-purin-8-one]",IC50,< 50 nM
"CC(C)c1c(F)cccc1-c1ncc2[nH]c(=O)n(Cc3ccc(-n4cccn4)cc3)c2n1 [Compound I-170, 9-(4-(1H-pyrazol-1-yl)benzyl)-2-(3-fluoro-2-isopropylphenyl)-7,9-dihydro-8H-purin-8-one]",IC50,< 50 nM
